Test results published in patent US7074605B2 (The Curators of the University of Missouri, priority 1997, dated 2006).

Molecular target: Clostridium perfringens α-N-acetylgalactosaminidase (Clostridium perfringens, UniProt I1SB20)
Type: biochemical

Chain of Clostridium perfringens α-N-acetylgalactosaminidase (I1SB20 1-629 limits assumed): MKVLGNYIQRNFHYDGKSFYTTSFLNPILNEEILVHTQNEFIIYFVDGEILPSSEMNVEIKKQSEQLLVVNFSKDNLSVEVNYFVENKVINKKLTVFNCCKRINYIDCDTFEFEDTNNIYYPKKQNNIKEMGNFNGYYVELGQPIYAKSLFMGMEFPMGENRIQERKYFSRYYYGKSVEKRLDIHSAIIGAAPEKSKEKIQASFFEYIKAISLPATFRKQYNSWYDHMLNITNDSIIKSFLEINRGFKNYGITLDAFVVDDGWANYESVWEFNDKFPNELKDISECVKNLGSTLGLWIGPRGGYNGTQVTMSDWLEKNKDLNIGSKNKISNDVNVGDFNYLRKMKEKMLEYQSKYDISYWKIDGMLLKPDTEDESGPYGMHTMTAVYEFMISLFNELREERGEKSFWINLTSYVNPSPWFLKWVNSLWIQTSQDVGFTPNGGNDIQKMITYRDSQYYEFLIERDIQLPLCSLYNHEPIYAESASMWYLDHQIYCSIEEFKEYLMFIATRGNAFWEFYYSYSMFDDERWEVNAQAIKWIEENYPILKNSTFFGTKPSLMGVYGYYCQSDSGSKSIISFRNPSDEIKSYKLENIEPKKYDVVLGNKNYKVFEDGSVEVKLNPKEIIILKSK

SMILES	Activity [U/ml]
CC(=O)NC1C(O)CC(Oc2ccc3c(C)cc(=O)oc3c2)(C(=O)O)OC1C(O)C(O)CO (stereo not drawn) [4MU-N-acetyl-α-neuraminic acid]	<0.001
Cc1cc(=O)oc2cc(O[C@@H]3O[C@H](CO)[C@H](O)[C@H](O)[C@H]3O)ccc12 [4MU-α-D-galactopyranoside]	<0.001
CC(=O)N[C@H]1[C@@H](Oc2ccc([N+](=O)[O-])cc2)O[C@H](CO)[C@H](O)[C@@H]1O [PNP-N-acetyl-α-D-galactosaminide]	0.334
CC(=O)N[C@H]1[C@@H](Oc2ccc([N+](=O)[O-])cc2)O[C@H](CO)[C@@H](O)[C@@H]1O [PNP-N-acetyl-α-D-glucosaminide]	<0.001
CC(=O)N[C@H]1[C@H](Oc2ccc([N+](=O)[O-])cc2)O[C@H](CO)[C@H](O)[C@@H]1O [PNP-N-acetyl-β-D-galactosaminide]	<0.001
CC(=O)N[C@H]1[C@H](Oc2ccc([N+](=O)[O-])cc2)O[C@H](CO)[C@@H](O)[C@@H]1O [PNP-N-acetyl-β-D-glucosaminide]	<0.001
O=[N+]([O-])c1ccc(O[C@H]2O[C@H](CO)[C@H](O)[C@H](O)[C@H]2O)cc1 [PNP-α-D-galactopyranoside]	<0.001
O=[N+]([O-])c1ccc(O[C@H]2O[C@H](CO)[C@@H](O)[C@H](O)[C@H]2O)cc1 [PNP-α-D-glucopyranoside]	<0.001
O=[N+]([O-])c1ccc(O[C@H]2O[C@H](CO)[C@@H](O)[C@H](O)[C@@H]2O)cc1 [PNP-α-D-mannopyranoside]	<0.001
O=[N+]([O-])c1ccc(O[C@@H]2OC[C@H](O)[C@H](O)[C@H]2O)cc1 [PNP-α-L-arabinopyranoside]	<0.001
C[C@@H]1O[C@@H](Oc2ccc([N+](=O)[O-])cc2)[C@@H](O)[C@H](O)[C@@H]1O [PNP-α-L-fucopyranoside]	<0.001
O=[N+]([O-])c1ccc(O[C@@H]2O[C@H](CO)[C@H](O)[C@H](O)[C@H]2O)cc1 [PNP-β-D-galactopyranoside]	<0.001
O=[N+]([O-])c1ccc(O[C@@H]2O[C@H](CO)[C@@H](O)[C@H](O)[C@H]2O)cc1 [PNP-β-D-glucopyranoside]	<0.001
C[C@@H]1O[C@H](Oc2ccc([N+](=O)[O-])cc2)[C@@H](O)[C@H](O)[C@@H]1O [PNP-β-L-fucopyranoside]	<0.001
